Consider nine molecules from publication PMC7415810, “A novel nucleolin-binding peptide for Cancer Theranostics” (Theranostics, 2020).

Assay [1] relates to MDA-MB-231-luc xenograft. Put plainly: Tumorigenesis experiment, MDA-MB-231-luc breast cancer xenograft. As to conditions: tail vein twice a week; for average tumor volume: day 21, n = 5; for final average tumor weight: n = 5. The protocol: All animal experiments were performed in accordance with IACUC guidelines (GIST-2019-040). For tumorigenesis experiments, anesthetized 6-week-old female NOD-scid Il2rg^-^/^- mice (NPG^TM, VITALSTAR) were inoculated in the mammary fat pad with 1 × 10^6 MDA-MB-231-luc cells in a 100 μl volume (n = 5 for each group). After tumor cell inoculation, when the tumor volume reached approximately 100 mm^3, the mice were randomly divided into the following five groups: (i) control, (ii) low-dose paclitaxel (2 mg/kg), (iii) high-dose paclitaxel (10 mg/kg), (iv) AGM-330 (16.68 mg/kg, molar equivalent to 2 mg/kg of PTX), and (v) AGM-330-PTX (19.05 mg/kg, molar equivalent to 2 mg/kg of PTX). The tumor size was measured twice a week, and the tumor volume was calculated with the following formula: volume (mm^3) = [length (mm)] × [width (mm)]^2 × 0.5. For the bioluminescent imaging experiment, D-luciferin (150 mg/kg; PerkinElmer) was intraperitoneally injected into each mouse, and an IVIS 100 imaging system (Xenogen, Corporation, Alameda, CA) was used for bioluminescent monitoring. Mice were anesthetized with vaporized isofurane (BK Pharm, Ilsan, Korea) and placed in an imaging chamber. After 10 min, each animal was imaged with an exposure time of 1 min. All bioluminescent image data were obtained using Living Image software (version 4.5.2, PerkinElmer). Photons detected from tumors were converted to average radiance values (photon/sec/cm^2/sr), which are quantitative data obtained from a region of […] (ROI) and include the photons emitted by bioluminescent cells from an assigned rectangular area over the whole body of each mouse.
A, Cell proliferation inhibition by AGM-330-PTX treatment was determined for 48 h by the WST assay in multiple breast and colorectal cancer cells and in normal cells. B, Schematic representation of the experimental protocol as described in the materials and methods section. Anesthetized 6‑week-old […] NPG mice were inoculated with a 1:1 mix of Matrigel and 1 × 10^6 MDA-MB-231-luc cells into the mammary fat pad. When the volume of primary tumors reached approximately 100 mm^3, tumor-bearing mice were treated with vehicle (PBS), PTX (2 or 10 mg/kg), AGM-330 (16.68 mg/kg, molar equivalent to 2 mg/kg of PTX), or AGM-330-PTX (19.05 mg/kg, molar equivalent to 2 mg/kg of PTX; n = 5/group). C-E, The therapeutic effect of AGM-330-PTX was evaluated in breast cancer xenograft models. C, Primary tumor volume was measured twice a week until the day of sacrifice. The primary tumor volume was calculated by the formula volume (mm^3) = (length (mm)) × (width (mm))^2 × 0.5. D, On the day of sacrifice, all primary tumors were isolated, and (E) the primary tumor weights were evaluated. F-I, Immunohistochemistry (IHC) sections of representative tumors with Ki-67 (F,H) and TUNEL (G,I) staining. Nuclei were stained with DAPI (blue). Scale bar, 50 µm. Bar graphs represent the mean ± SD, and statistical analyses were performed by one-way ANOVA with Dunnett's multiple comparison. *, **, and *** indicate P < 0.05, P < 0.01, and P < 0.001, respectively.
Following in vitro proliferation analysis on cancer lines, we investigated whether AGM-330-PTX could be a potential therapeutic agent in vivo. We inoculated MDA-MB-231-luc cells into the mammary fat pad of NPG mice. After the […] tumors grew to 100 mm^3, comparative efficacy studies were performed by dividing the animals into five groups (n = 5/group) treated with vehicle (PBS), PTX (2 or 10 mg/kg, respectively), AGM-330 (16.68 mg/kg, molar equivalent to 2 mg/kg of PTX), or AGM-330-PTX (19.05 mg/kg, molar equivalent to 2 mg/kg of PTX) twice a week by tail vein injection (Figure 5B). Tumor growth was monitored by measuring volumes twice a week with a caliber rule over the course of 3 weeks.
Figure S11. A-E, NPG TM mice bearing MDA-MB-231-luc tumors were treated twice a week for 21 days with […]

Assay [2] has as its system MCF-10A cells. Put plainly: cells. As to conditions: Homo sapiens, MCF-10A, 48 h, read-out: IC50, MCF-10A cells. The protocol: (§1) Cancer and normal cells (1 × 10^4 cells/well) were seeded in 96-well plates, incubated for 24 h, and then treated with increasing concentrations of AGM-330, PTX, and AGM-330-PTX for 48 h. Cell viability was assessed by the CellVia WST-1 assay (Young In Frontier) according to the manufacturer's instructions. The numbers of viable cells were measured at a wavelength of 450 nm using a VersaMax ELISA plate reader (Molecular Devices, San Jose, CA, USA).
(§2) Figure S3. A-C, Cancer and normal cells (1 × 10^4 cells/well) were seeded in 96-well plates. After 24 h of incuba-tion, the cells were treated with an increasing concentration of dimeric or tetrameric AGM-330 for 48 h. The viability of cells grown in 0 % FBS (A), 5 % FBS (B) or 10 % FBS (C) was assessed by a CellVia WST-1 assay (Young In Frontier, Seoul, Korea) according to the manufacturer’s instruction. The numbers of viable cells were measured at a wavelength of 450 nm using an VersaMax ELISA plate reader (Molecular Devices). D, E, Binding specificity of AGM-330. A whole-cell binding assay was performed to determine the cell binding of AGM-330 in 1 % FBS (D) or 5 % FBS (E). Scale bar, 200 μm.

The test system of assay [3] is MDA-MB-231 cells. As to the kind of experiment: cells. As to conditions: Homo sapiens, MDA-MB-231, 48 h, read-out: IC50, MDA-MB-231 cells. How it is done:
as §1, §2

Assay [4] relates to MDA-MB-231. As to the kind of experiment: Whole-cell binding assay on OBOC peptide beads. The following applies: peptide on TentaGel beads incubated with cells at 10^6 cells/ml; repeated 3 times. Format: cell-based, human. The protocol: (§3) The beads were washed extensively with double-distilled water and phosphate-buffered saline (PBS; Welgene Inc., Korea) before screening. Cancer and normal cells were detached from culture dishes with trypsin/EDTA (Gibco), washed with their corresponding culture medium, resuspended at 10^6 cells/ml, and incubated with OBOC beads in Petri dishes in a humidified CO2 incubator at 37 °C with shaking (60 rpm). Beads bound by cells appeared under a microscope as rosettes in which a central bead was covered by one or more layers of cells. The positive beads were picked with a pipette under an inverted microscope, treated with guanidine-HCL (8 M, 20 min) to remove cells and proteins on the bead surface, and subjected to a second round of screening with normal breast epithelial cells to eliminate false positive binding.
(§4) Note : Semiquantitative relative binding activity: “++++” very strong binding (>40 cells per bead), “+++” strong binding (30
(§5) -20 cells per bead), “+ +” moderate binding (20 - 10 cells per bead), “+” weak binding (5-10 cells per bead), “-” no binding. […]
(§6) Figure S1. A, Steps performed in peptide library synthesis and screening. 1, The split-mix synthesis method was performed to construct the combinatorial OBOC libraries. […]
(§7) sized. 3, OBOC libraries were incubated with cancer cells in a CO2 incubator. 4, Beads carrying ligands with an affinity for cell surface molecules became covered with cells. 5, The positive beads were picked with a pipette under an inverted microscope. 6, The peptide sequences for positive beads were determined by Edman microse - […]
(§8) peptide libraries. B, The binding specificities of the peptides against cancer cell and normal cells were deter- […]
(§9) breast and colorectal cancer cells and normal breast and colorectal cells were re-suspended at 10^6 cells/ml and incubated with beads. All experiments were repeated 3 times. Scale bar, 200 μm.

For assay [5], the system named is MCF-10A. As to the kind of experiment: Whole-cell binding assay on OBOC peptide beads. It counts as cell-based, human. The following applies: peptide on TentaGel beads incubated with cells at 10^6 cells/ml; repeated 3 times. The protocol:
as §3, §4, §5, §6, §7, §8, §9

Assay [6] deals with T1, full length recombinant NCL (OriGene) (UniProt P19338 1-710).
T1 construct: nucleolin, full length recombinant protein from OriGene; no catalogue number, species or tags are printed; source: bought: OriGene
T1 sequence (P19338 whole entry): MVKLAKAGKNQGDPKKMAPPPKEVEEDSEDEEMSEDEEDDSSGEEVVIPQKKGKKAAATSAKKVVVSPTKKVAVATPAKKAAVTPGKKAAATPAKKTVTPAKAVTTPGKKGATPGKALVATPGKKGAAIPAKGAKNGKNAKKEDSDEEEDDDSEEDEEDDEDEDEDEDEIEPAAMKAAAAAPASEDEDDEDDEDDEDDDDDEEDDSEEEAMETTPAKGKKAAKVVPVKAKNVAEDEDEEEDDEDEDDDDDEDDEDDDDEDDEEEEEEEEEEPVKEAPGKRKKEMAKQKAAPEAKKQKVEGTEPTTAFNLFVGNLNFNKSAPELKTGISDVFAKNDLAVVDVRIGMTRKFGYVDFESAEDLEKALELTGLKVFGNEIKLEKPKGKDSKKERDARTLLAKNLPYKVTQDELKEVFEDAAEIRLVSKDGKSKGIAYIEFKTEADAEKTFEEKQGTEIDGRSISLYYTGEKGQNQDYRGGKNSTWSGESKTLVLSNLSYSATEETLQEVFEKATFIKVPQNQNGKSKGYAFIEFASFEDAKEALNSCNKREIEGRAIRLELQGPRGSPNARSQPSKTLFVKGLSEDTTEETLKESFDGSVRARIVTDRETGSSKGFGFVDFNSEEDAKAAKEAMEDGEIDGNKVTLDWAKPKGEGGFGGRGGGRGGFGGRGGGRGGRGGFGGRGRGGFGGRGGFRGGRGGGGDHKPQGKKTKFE
Put plainly: SPR; Biacore T-200, 25 °C; full length recombinant NCL amine-coupled on CM5 (about 1000 RU); AGM-330 20 nM - 2.5 μM injected at 30 μl/min; HBS-EP (10 mM HEPES pH 7.4, 0.15 M NaCl, 3.4 mM EDTA, 0.05% Triton-X 100); KD = kd/ka. The following applies: both partners purified.

A word on the IC50: it is the concentration that gives 50% inhibition. On to `CC(=O)O[C@H]1C(=O)[C@@]2(C)[C@H]([C@H](OC(=O)c3ccccc3)[C@]3(O)C[C@H](OC(=O)[C@H](O)[C@@H](NC(=O)c4ccccc4)c4ccccc4)C(C)=C1C3(C)C)[C@]1(OC(C)=O)CO[C@@H]1C[C@@H]2O` [PTX, paclitaxel, reference compound], for which the average tumor volume amounted to 1671 ± 199 mm^3 in assay [1] (2 mg/kg) and 988 ± 78 mm^3 in assay [1] (10 mg/kg). Besides, the “final average tumor weight” value in assay [1] (2 mg/kg) was 2.1 ± 0.4 g; in assay [1] (10 mg/kg) it was 1.5 ± 0.1 g. Moreover, the IC50 amounted to 450 nM in assay [2] and 370 nM in assay [3].

For ADHRHRRSG [AGM-331], the “Semiquantitative relative binding activity, MDA-MB-231” value in assay [4] was “++++ (very strong binding (>40 cells per bead))”. Also, the “Semiquantitative relative binding activity, MCF-10A” value in assay [5] was “++ (moderate binding (20 - 10 cells per bead))”.

AVARARRRR [AGM-332]: the “Semiquantitative relative binding activity, MDA-MB-231” value in assay [4] is reported as “+++ (strong binding (30 -20 cells per bead))”. For the same molecule, in assay [5], the “Semiquantitative relative binding activity, MCF-10A” value was “++ (moderate binding (20 - 10 cells per bead))”.

As for “FGRLKKPLK [AGM-335, 9mer peptide hit from OBOC screening]”, the “Semiquantitative relative binding activity, MDA-MB-231” value in assay [4] is “+ (weak binding (5-10 cells per bead))”. In addition, in assay [5], the “Semiquantitative relative binding activity, MCF-10A” value was “+ (weak binding (5-10 cells per bead))”.

“KRRRKAPTD [AGM-337, 9mer peptide hit from OBOC screening]”: the “Semiquantitative relative binding activity, MDA-MB-231” value in assay [4] is reported as “+ (weak binding (5-10 cells per bead))”. For the same molecule, the “Semiquantitative relative binding activity, MCF-10A” value in assay [5] is listed as “+ (weak binding (5-10 cells per bead))”.

Turning to “KRRRRERAG [AGM-336, 9mer peptide hit from OBOC screening]”, the “Semiquantitative relative binding activity, MDA-MB-231” value in assay [4] is on record as “+++ (strong binding (30 -20 cells per bead))”. For the same molecule, in assay [5], the “Semiquantitative relative binding activity, MCF-10A” value was “+++ (strong binding (30 -20 cells per bead))”.

Take “RFLKNKKAR [AGM-333, 9mer peptide hit from OBOC screening]”: the “Semiquantitative relative binding activity, MDA-MB-231” value in assay [4] is listed as “++ (moderate binding (20 - 10 cells per bead))”. Moreover, the “Semiquantitative relative binding activity, MCF-10A” value in assay [5] was “+++ (strong binding (30 -20 cells per bead))”.

Consider “RWLKNKKAR [AGM-334, 9mer peptide hit from OBOC screening]”, for which the “Semiquantitative relative binding activity, MDA-MB-231” value in assay [4] is on record as “++ (moderate binding (20 - 10 cells per bead))”. Besides, in assay [5], the “Semiquantitative relative binding activity, MCF-10A” value is reported as “+++ (strong binding (30 -20 cells per bead))”.

B1: AGM-330 (tetrameric multiple-antigen-peptide form) (peptide)
peptide: RHGAMVYLK
modifications: PEG12 after the C-terminal Lys of each RHGAMVYLK arm (RHGAMVYLK-PEG12-OH), joined to a trilysine core
notes: arm of the dendrimer; picked from a one-bead-one-compound library on MDA-MB-231 cells; The core is not written as a chain; also called tetrameric AGM-330; source: synthetic peptide (AnyGen, solid-phase peptide synthesis)
The Kd is the free concentration of one partner at which half of the binding sites on the other are occupied at equilibrium, for simple one-to-one binding. Take B1: the Kd in assay [6] was found to be 57.7 ± 12 nM.
